Laboratory results published in patent US9302999B2, “Substituted triazoles as herbicides” (E. I. DU PONT DE NEMOURS AND COMPANY, priority 2012, dated 2016).

Key:
Format in all cases: in vivo
[1] = test system: bromegrass, downy (downy bromegrass, Bromus tectorum); assay: Test C pre-/postemergence: bromegrass, downy
Summary of the method: (§1)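 Preemergence on seeds in loam/sand, postemergence on 2–18 cm (1–4-leaf) plants in peat-based medium; compounds in non-phytotoxic solvent with surfactant. After 13–15 days in greenhouse, visual rating versus controls, 0 (no effect) to 100 (complete control).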

[2] = test system: bermudagrass (Cynodon dactylon); assay: Test C pre-/postemergence: bermudagrass
Summary of the method: as §1

[3] = test system: surinam grass (Brachiaria decumbens); assay: Test C pre-/postemergence: surinam grass
Summary of the method: as §1

[4] = test system: cocklebur (common cocklebur, Xanthium strumarium); assay: Test C pre-/postemergence: cocklebur
Summary of the method: as §1

[5] = test system: woolly cupgrass (Eriochloa villosa); assay: Test C pre-/postemergence: woolly cupgrass
Summary of the method: as §1

[6] = test system: goosegrass (Eleusine indica); assay: Test C pre-/postemergence: goosegrass
Summary of the method: as §1

[7] = test system: common (oilseed) sunflower (Helianthus annuus); assay: Test C pre-/postemergence: sunflower; conditions: Preemergence
Summary of the method: as §1

[8] = test system: canarygrass (Phalaris minor); assay: Test C postemergence: canarygrass
Summary of the method: (§2)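 Visual 0–100 injury score vs untreated controls (0 none, 100 complete control), taken 13–15 d after treatment. Postemergence spray on potted plants, 2–18 cm, 1–4 leaves; greenhouse.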

[9] = test system: windgrass (Apera spica-venti); assay: Test C postemergence: windgrass
Summary of the method: as §2

[10] = test system: deadnettle (henbit deadnettle, Lamium amplexicaule); assay: Test C postemergence: deadnettle
Summary of the method: as §2

[11] = Postemergence, 31 g ai/ha, scale 0 to 100 (0 no effect, 100 complete control)
[12] = Postemergence, 62 g ai/ha, scale 0 to 100 (0 no effect, 100 complete control)
[13] = Postemergence, 125 g ai/ha, scale 0 to 100, 0 no effect, 100 complete control
[14] = Postemergence, 250 g ai/ha, scale 0 to 100
[15] = Preemergence, 31 g ai/ha, scale of 0 to 100, 0 is no effect, 100 is complete control
[16] = Preemergence, 62 g ai/ha, scale 0 to 100, 0 no effect, 100 complete control
[17] = Preemergence, 125 g ai/ha, scale 0 to 100, 0 no effect, 100 complete control
[18] = Preemergence, 250 g ai/ha, scale 0 to 100, 0 no effect, 100 complete control
[19] = Preemergence, 62 g ai/ha, scale of 0 to 100, 0 is no effect, 100 is complete control
[20] = 31 g ai/ha, scale of 0 to 100, 0 is no effect, 100 is complete control
[21] = 62 g ai/ha, scale of 0 to 100, 0 is no effect, 100 is complete control
[22] = 125 g ai/ha, scale 0 to 100, 0 no effect, 100 complete control
[23] = 250 g ai/ha, scale 0 to 100, 0 no effect, 100 complete control
[24] = 31 g ai/ha, scale 0 to 100 (0 no effect, 100 complete control)
[25] = 62 g ai/ha, scale 0 to 100 (0 no effect, 100 complete control)

Cc1nn(-c2ccc(C(F)(F)F)cn2)nc1Oc1ccnc(C(F)(F)F)c1 [Compound 23]
98: Plant response rating, Deadnettle ([10]; 250 g ai/ha, scale 0 to 100)
80: Plant response rating, Deadnettle [10, 24] | Plant response rating, Deadnettle [10, 25]
0: Plant response rating, Bromegrass, Downy [1, 15] | Plant response rating, Bromegrass, Downy [1, 16] | Plant response rating, Cocklebur [4, 15] | Plant response rating, Cocklebur [4, 16] | Plant response rating, Sunflower [7, 20] | Plant response rating, Sunflower [7, 21] | Plant response rating, Sunflower [7, 22] | Plant response rating, Sunflower [7, 23]
40: Plant response rating, Cocklebur [4, 13]
30: Plant response rating, Bermudagrass [2, 14] | Plant response rating, Goosegrass [6, 14]
85: Plant response rating, Deadnettle [10, 22]
50: Plant response rating, Cocklebur [4, 14] | Plant response rating, Cupgrass, Woolly [5, 14]
15: Plant response rating, Bermudagrass [2, 13] | Plant response rating, Surinam Grass [3, 14] | Plant response rating, Surinam Grass [3, 15] | Plant response rating, Cupgrass, Woolly [5, 13] | Plant response rating, Goosegrass [6, 13] | Plant response rating, Canarygrass [8, 22] | Plant response rating, Canarygrass ([8]; 250 g ai/ha, scale 0 to 100) | Plant response rating, Windgrass [9, 25] | Plant response rating, Windgrass [9, 22] | Plant response rating, Windgrass ([9]; 250 g ai/ha, scale 0 to 100)
5: Plant response rating, Bromegrass, Downy [1, 11] | Plant response rating, Bromegrass, Downy [1, 12] | Plant response rating, Bromegrass, Downy [1, 13] | Plant response rating, Bromegrass, Downy [1, 14] | Plant response rating, Bromegrass, Downy [1, 17] | Plant response rating, Bermudagrass [2, 11] | Plant response rating, Surinam Grass [3, 11] | Plant response rating, Cocklebur [4, 17] | Plant response rating, Cocklebur [4, 18] | Plant response rating, Canarygrass [8, 24]
10: Plant response rating, Bromegrass, Downy [1, 18] | Plant response rating, Bermudagrass [2, 12] | Plant response rating, Surinam Grass [3, 12] | Plant response rating, Surinam Grass [3, 13] | Plant response rating, Cupgrass, Woolly [5, 11] | Plant response rating, Cupgrass, Woolly [5, 12] | Plant response rating, Goosegrass [6, 11] | Plant response rating, Goosegrass [6, 12] | Plant response rating, Canarygrass [8, 25] | Plant response rating, Windgrass [9, 24]
100: Plant response rating, Bermudagrass [2, 15] | Plant response rating, Bermudagrass [2, 16] | Plant response rating, Bermudagrass [2, 17] | Plant response rating, Bermudagrass [2, 18] | Plant response rating, Surinam Grass [3, 17] | Plant response rating, Surinam Grass [3, 18] | Plant response rating, Cupgrass, Woolly [5, 19] | Plant response rating, Cupgrass, Woolly [5, 17] | Plant response rating, Cupgrass, Woolly [5, 18] | Plant response rating, Goosegrass [6, 19] | Plant response rating, Goosegrass [6, 17] | Plant response rating, Goosegrass [6, 18]
95: Plant response rating, Cupgrass, Woolly [5, 15] | Plant response rating, Goosegrass [6, 15]
25: Plant response rating, Cocklebur [4, 11] | Plant response rating, Cocklebur [4, 12]
60: Plant response rating, Surinam Grass [3, 19]

FC(F)(F)COc1nn(-c2ccc(C(F)(F)F)cc2)nc1Cc1ccnc(C(F)(F)F)c1 [Compound 14, 4-[[5-(2,2,2-trifluoroethoxy)-2-[4-(trifluoromethyl)phenyl]-2H-1,2,3-triazol-4-yl]methyl]-2-(trifluoromethyl)pyridine]
80: Plant response rating, Cupgrass, Woolly [5, 18] | Plant response rating, Canarygrass [8, 25]
65: Plant response rating, Bermudagrass [2, 14] | Plant response rating, Cupgrass, Woolly [5, 14]
95: Plant response rating, Windgrass [9, 22] | Plant response rating, Windgrass ([9]; 250 g ai/ha, scale 0 to 100)
75: Plant response rating, Cocklebur [4, 14] | Plant response rating, Cupgrass, Woolly [5, 19] | Plant response rating, Cupgrass, Woolly [5, 17] | Plant response rating, Goosegrass [6, 14]
15: Plant response rating, Bermudagrass [2, 12] | Plant response rating, Sunflower [7, 23]
5: Plant response rating, Surinam Grass [3, 11] | Plant response rating, Surinam Grass [3, 12] | Plant response rating, Cocklebur [4, 11] | Plant response rating, Cocklebur [4, 12] | Plant response rating, Cupgrass, Woolly [5, 11] | Plant response rating, Cupgrass, Woolly [5, 12] | Plant response rating, Cupgrass, Woolly [5, 15] | Plant response rating, Goosegrass [6, 11] | Plant response rating, Goosegrass [6, 12]
100: Plant response rating, Bermudagrass [2, 16] | Plant response rating, Bermudagrass [2, 17] | Plant response rating, Bermudagrass [2, 18] | Plant response rating, Goosegrass [6, 19] | Plant response rating, Goosegrass [6, 17] | Plant response rating, Goosegrass [6, 18] | Plant response rating, Deadnettle [10, 22] | Plant response rating, Deadnettle ([10]; 250 g ai/ha, scale 0 to 100)
35: Plant response rating, Bromegrass, Downy [1, 16] | Plant response rating, Cupgrass, Woolly [5, 13]
60: Plant response rating, Bromegrass, Downy [1, 17] | Plant response rating, Surinam Grass [3, 17] | Plant response rating, Goosegrass [6, 13]
20: Plant response rating, Surinam Grass [3, 15] | Plant response rating, Cocklebur [4, 17]
30: Plant response rating, Bromegrass, Downy [1, 11] | Plant response rating, Bromegrass, Downy [1, 15] | Plant response rating, Surinam Grass [3, 13]
55: Plant response rating, Bermudagrass [2, 13] | Plant response rating, Surinam Grass [3, 14] | Plant response rating, Canarygrass [8, 24]
90: Plant response rating, Windgrass [9, 25]
0: Plant response rating, Bermudagrass [2, 11] | Plant response rating, Cocklebur [4, 15] | Plant response rating, Sunflower [7, 20] | Plant response rating, Sunflower [7, 21] | Plant response rating, Sunflower [7, 22]
45: Plant response rating, Bromegrass, Downy [1, 14] | Plant response rating, Surinam Grass [3, 19] | Plant response rating, Cocklebur [4, 13] | Plant response rating, Cocklebur [4, 18]
70: Plant response rating, Windgrass [9, 24]
98: Plant response rating, Bromegrass, Downy [1, 18] | Plant response rating, Bermudagrass [2, 15] | Plant response rating, Goosegrass [6, 15] | Plant response rating, Deadnettle [10, 24] | Plant response rating, Deadnettle [10, 25]
40: Plant response rating, Bromegrass, Downy [1, 12] | Plant response rating, Bromegrass, Downy [1, 13]
85: Plant response rating, Surinam Grass [3, 18] | Plant response rating, Canarygrass [8, 22] | Plant response rating, Canarygrass ([8]; 250 g ai/ha, scale 0 to 100)
